Measured values reported in the NIST ThermoML archive (doi:10.1016/j.jct.2017.01.016).
Numbers after ± are expanded uncertainties.

Assays:
[1] = 101 kPa, Liquid; for viscosity: Capillary tube (Ostwald / Ubbelohde) method; for speed of sound: Frequency=3 MHz, Linear variable-path acoustic interferometer
[2] = xn = mol fraction of the nth substance listed; details: 101 kPa, Liquid; for viscosity: Capillary tube (Ostwald / Ubbelohde) method; for speed of sound: Frequency=3 MHz, Linear variable-path acoustic interferometer

Cc1ccccc1C [1,2-dimethylbenzene]
[1]
Details | speed of sound [m/s] | viscosity [mPa·s]
293.15 K | 1367.7 ± 1.7 | 0.8066 ± 0.017
298.15 K | 1347.5 ± 1.7 | 0.7576 ± 0.016
303.15 K | 1329.4 ± 1.7 | 0.7132 ± 0.015
308.15 K | 1313.3 ± 1.7 | 0.669 ± 0.014
313.15 K | 1298.5 ± 1.6 | 0.6315 ± 0.013
318.15 K | 1285.2 ± 1.6 | 0.5972 ± 0.013

Cc1cc(C)cc(C)c1 [1,3,5-trimethylbenzene]
[1]
Details | speed of sound [m/s] | viscosity [mPa·s]
293.15 K | 1360.4 ± 1.7 | 0.7056 ± 0.015
298.15 K | 1339.8 ± 1.7 | 0.6592 ± 0.014
303.15 K | 1319.6 ± 1.7 | 0.6188 ± 0.013
308.15 K | 1300.2 ± 1.7 | 0.5792 ± 0.012
313.15 K | 1280.4 ± 1.7 | 0.5422 ± 0.011
318.15 K | 1263 ± 1.7 | 0.5066 ± 0.011

Cc1cccc(C)c1 [1,3-dimethylbenzene]
[1]
Details | speed of sound [m/s] | viscosity [mPa·s]
293.15 K | 1346.7 ± 1.7 | 0.6184 ± 0.013
298.15 K | 1323.6 ± 1.7 | 0.584 ± 0.012
303.15 K | 1302.4 ± 1.7 | 0.5517 ± 0.012
308.15 K | 1282.3 ± 1.6 | 0.5229 ± 0.011
313.15 K | 1262.3 ± 1.6 | 0.4938 ± 0.01
318.15 K | 1243 ± 1.6 | 0.468 ± 0.0099

Cc1ccc(C)cc1 [1,4-dimethylbenzene]
[1]
Details | speed of sound [m/s] | viscosity [mPa·s]
293.15 K | 1328.4 ± 1.7 | 0.6505 ± 0.014
298.15 K | 1307.4 ± 1.7 | 0.6115 ± 0.013
303.15 K | 1287.3 ± 1.6 | 0.5766 ± 0.012
308.15 K | 1267.6 ± 1.6 | 0.544 ± 0.011
313.15 K | 1248.3 ± 1.6 | 0.5132 ± 0.011
318.15 K | 1229.8 ± 1.6 | 0.4862 ± 0.01

C1COCCO1 [1,4-dioxane]
[1]
Details | speed of sound [m/s] | viscosity [mPa·s]
293.15 K | 1367.2 ± 1.7 | 1.306 ± 0.027
298.15 K | 1344.7 ± 1.7 | 1.195 ± 0.025
303.15 K | 1323.1 ± 1.7 | 1.096 ± 0.023
308.15 K | 1301.2 ± 1.7 | 1.014 ± 0.021
313.15 K | 1279.7 ± 1.6 | 0.945 ± 0.02
318.15 K | 1258.6 ± 1.6 | 0.884 ± 0.018

C1COCCO1 [1,4-dioxane] + Cc1cc(C)cc(C)c1
[2], x1 = 1
Details | speed of sound [m/s] | viscosity [mPa·s]
293.15 K | 1367.2 ± 1.7 | 1.306 ± 0.027
298.15 K | 1344.7 ± 1.7 | 1.195 ± 0.025
303.15 K | 1323.1 ± 1.7 | 1.096 ± 0.023
308.15 K | 1301.2 ± 1.7 | 1.014 ± 0.021
313.15 K | 1279.7 ± 1.6 | 0.945 ± 0.02
318.15 K | 1258.6 ± 1.6 | 0.884 ± 0.018

C1COCCO1 [1,4-dioxane] + Cc1ccc(C)cc1
[2], x1 = 1
Details | speed of sound [m/s] | viscosity [mPa·s]
293.15 K | 1367.2 ± 1.7 | 1.306 ± 0.027
298.15 K | 1344.7 ± 1.7 | 1.195 ± 0.025
303.15 K | 1323.1 ± 1.7 | 1.096 ± 0.023
308.15 K | 1301.2 ± 1.7 | 1.014 ± 0.021
313.15 K | 1279.7 ± 1.6 | 0.945 ± 0.02
318.15 K | 1258.6 ± 1.6 | 0.884 ± 0.018

C1COCCO1 [1,4-dioxane] + Cc1cccc(C)c1
[2], x1 = 1
Details | speed of sound [m/s] | viscosity [mPa·s]
293.15 K | 1367.2 ± 1.7 | 1.306 ± 0.027
298.15 K | 1344.7 ± 1.7 | 1.195 ± 0.025
303.15 K | 1323.1 ± 1.7 | 1.096 ± 0.023
308.15 K | 1301.2 ± 1.7 | 1.014 ± 0.021
313.15 K | 1279.7 ± 1.6 | 0.945 ± 0.02
318.15 K | 1258.6 ± 1.6 | 0.884 ± 0.018

C1COCCO1 [1,4-dioxane] + Cc1ccccc1C
[2], x1 = 1
Details | speed of sound [m/s] | viscosity [mPa·s]
293.15 K | 1367.2 ± 1.7 | 1.306 ± 0.027
298.15 K | 1344.7 ± 1.7 | 1.195 ± 0.025
303.15 K | 1323.1 ± 1.7 | 1.096 ± 0.023
308.15 K | 1301.2 ± 1.7 | 1.014 ± 0.021
313.15 K | 1279.7 ± 1.6 | 0.945 ± 0.02
318.15 K | 1258.6 ± 1.6 | 0.884 ± 0.018

c1ccccc1 [benzene]
[1]
Details | speed of sound [m/s] | viscosity [mPa·s]
293.15 K | 1324.4 ± 1.6 | 0.647 ± 0.013
298.15 K | 1299.5 ± 1.6 | 0.6048 ± 0.013
303.15 K | 1275.7 ± 1.6 | 0.5672 ± 0.012
308.15 K | 1252.4 ± 1.6 | 0.5322 ± 0.011
313.15 K | 1229.3 ± 1.6 | 0.498 ± 0.01
318.15 K | 1207.8 ± 1.6 | 0.4672 ± 0.0098

c1ccccc1 [benzene] + C1COCCO1
[2], x2 = 0
Details | speed of sound [m/s] | viscosity [mPa·s]
293.15 K | 1324.4 ± 1.6 | 0.647 ± 0.013
298.15 K | 1299.5 ± 1.6 | 0.6048 ± 0.013
303.15 K | 1275.7 ± 1.6 | 0.5672 ± 0.012
308.15 K | 1252.4 ± 1.6 | 0.5322 ± 0.011
313.15 K | 1229.3 ± 1.6 | 0.498 ± 0.01
318.15 K | 1207.8 ± 1.6 | 0.4672 ± 0.0098

Cc1ccccc1 [toluene]
[1]
Details | speed of sound [m/s] | viscosity [mPa·s]
293.15 K | 1328.6 ± 1.6 | 0.5885 ± 0.012
298.15 K | 1307.3 ± 1.6 | 0.5541 ± 0.012
303.15 K | 1285.5 ± 1.6 | 0.5232 ± 0.011
308.15 K | 1264.2 ± 1.6 | 0.495 ± 0.01
313.15 K | 1242.4 ± 1.6 | 0.4662 ± 0.0098
318.15 K | 1220.7 ± 1.6 | 0.4384 ± 0.0092

Cc1ccccc1 [toluene] + C1COCCO1
[2], x2 = 0
Details | speed of sound [m/s] | viscosity [mPa·s]
293.15 K | 1328.6 ± 1.6 | 0.5885 ± 0.012
298.15 K | 1307.3 ± 1.6 | 0.5541 ± 0.012
303.15 K | 1285.5 ± 1.6 | 0.5232 ± 0.011
308.15 K | 1264.2 ± 1.6 | 0.495 ± 0.01
313.15 K | 1242.4 ± 1.6 | 0.4662 ± 0.0098
318.15 K | 1220.7 ± 1.6 | 0.4384 ± 0.0092
